In PMC9851200, “Multiparameter phenotypic screening for endogenous TFEB and TFE3 translocation identifies novel chemical series modulating lysosome function” (Autophagy, 2022):

How the values were obtained:
Format in all cases: binding
[1] = molecular target: kinases (KINOMEscan panel) (Homo sapiens, UniProt Q86Z02); conditions: HIPK1; NEW KINOMEscan
[2] = molecular target: kinases (KINOMEscan panel) (Homo sapiens, UniProt Q9UIK4); conditions: kinase DAPK2; NEW KINOMEscan
[3] = molecular target: T1, kinases (KINOMEscan panel) (Homo sapiens, UniProt Q9UL54); conditions: kinase TAOK2; NEW KINOMEscan
T1 sequence (Q9UL54 1-1235): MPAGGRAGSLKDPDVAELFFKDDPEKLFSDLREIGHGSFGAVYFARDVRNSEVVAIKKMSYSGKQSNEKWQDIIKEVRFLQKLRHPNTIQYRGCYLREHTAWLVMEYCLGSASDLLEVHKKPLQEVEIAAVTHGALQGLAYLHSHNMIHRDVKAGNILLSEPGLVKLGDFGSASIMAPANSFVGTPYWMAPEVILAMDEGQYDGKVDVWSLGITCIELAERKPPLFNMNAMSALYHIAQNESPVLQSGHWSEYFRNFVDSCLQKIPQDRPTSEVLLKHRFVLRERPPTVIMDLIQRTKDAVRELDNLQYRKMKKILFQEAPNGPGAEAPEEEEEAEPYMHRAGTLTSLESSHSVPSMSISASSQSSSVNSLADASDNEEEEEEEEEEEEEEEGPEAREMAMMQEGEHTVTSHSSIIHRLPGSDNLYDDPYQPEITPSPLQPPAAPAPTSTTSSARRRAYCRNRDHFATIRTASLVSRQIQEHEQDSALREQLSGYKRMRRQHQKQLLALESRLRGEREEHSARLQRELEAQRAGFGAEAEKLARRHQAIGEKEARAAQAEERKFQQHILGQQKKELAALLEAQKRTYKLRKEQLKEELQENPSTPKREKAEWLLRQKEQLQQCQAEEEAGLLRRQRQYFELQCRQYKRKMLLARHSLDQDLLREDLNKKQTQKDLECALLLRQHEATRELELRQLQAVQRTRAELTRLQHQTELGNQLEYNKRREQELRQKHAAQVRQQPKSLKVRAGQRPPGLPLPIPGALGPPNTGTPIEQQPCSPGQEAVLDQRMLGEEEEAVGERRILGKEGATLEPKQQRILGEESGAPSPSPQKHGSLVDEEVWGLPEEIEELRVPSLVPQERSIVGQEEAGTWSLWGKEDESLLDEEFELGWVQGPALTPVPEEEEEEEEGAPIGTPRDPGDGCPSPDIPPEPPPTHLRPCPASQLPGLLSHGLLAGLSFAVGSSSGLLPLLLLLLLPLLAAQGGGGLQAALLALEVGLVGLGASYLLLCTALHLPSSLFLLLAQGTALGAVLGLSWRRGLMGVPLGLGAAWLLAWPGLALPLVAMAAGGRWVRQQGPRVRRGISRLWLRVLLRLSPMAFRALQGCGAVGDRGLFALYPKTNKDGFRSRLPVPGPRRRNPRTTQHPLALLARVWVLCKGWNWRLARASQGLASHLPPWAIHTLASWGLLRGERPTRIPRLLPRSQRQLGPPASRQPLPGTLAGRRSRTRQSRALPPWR

[4] = molecular target: T2, kinases (KINOMEscan panel) (Homo sapiens, UniProt Q6ZWH5); conditions: NEW KINOMEscan
T2 sequence (Q6ZWH5 1-1172): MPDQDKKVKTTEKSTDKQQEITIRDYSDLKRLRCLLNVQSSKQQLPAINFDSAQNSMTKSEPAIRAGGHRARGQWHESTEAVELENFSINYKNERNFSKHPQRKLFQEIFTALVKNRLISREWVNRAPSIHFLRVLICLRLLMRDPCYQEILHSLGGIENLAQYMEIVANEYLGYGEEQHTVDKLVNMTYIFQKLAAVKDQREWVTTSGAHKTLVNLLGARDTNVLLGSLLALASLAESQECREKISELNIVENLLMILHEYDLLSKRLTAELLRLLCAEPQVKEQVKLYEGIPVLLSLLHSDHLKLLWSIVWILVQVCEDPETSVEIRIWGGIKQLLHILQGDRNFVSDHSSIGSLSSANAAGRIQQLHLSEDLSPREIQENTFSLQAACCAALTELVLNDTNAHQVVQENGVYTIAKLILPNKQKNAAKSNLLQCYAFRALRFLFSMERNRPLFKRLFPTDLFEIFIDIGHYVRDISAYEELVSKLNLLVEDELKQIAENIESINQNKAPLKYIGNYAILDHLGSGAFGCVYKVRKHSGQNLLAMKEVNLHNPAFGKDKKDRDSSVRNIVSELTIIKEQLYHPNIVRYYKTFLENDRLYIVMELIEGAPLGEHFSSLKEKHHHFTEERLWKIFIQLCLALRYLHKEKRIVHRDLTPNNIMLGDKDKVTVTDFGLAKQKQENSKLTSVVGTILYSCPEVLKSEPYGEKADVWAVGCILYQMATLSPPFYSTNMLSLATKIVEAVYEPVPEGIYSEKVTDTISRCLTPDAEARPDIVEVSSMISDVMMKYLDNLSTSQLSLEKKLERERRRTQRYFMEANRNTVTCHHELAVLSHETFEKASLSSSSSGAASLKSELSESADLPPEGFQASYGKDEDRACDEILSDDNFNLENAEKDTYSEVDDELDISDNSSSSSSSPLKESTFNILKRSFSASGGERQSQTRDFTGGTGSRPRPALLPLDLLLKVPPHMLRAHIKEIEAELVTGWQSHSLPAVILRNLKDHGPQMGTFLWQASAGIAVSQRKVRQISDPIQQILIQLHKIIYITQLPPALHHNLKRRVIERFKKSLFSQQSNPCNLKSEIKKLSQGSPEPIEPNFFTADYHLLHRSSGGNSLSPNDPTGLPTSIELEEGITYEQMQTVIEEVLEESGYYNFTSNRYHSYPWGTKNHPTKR

kinases (KINOMEscan panel) (Homo sapiens, UniProt Q9UIK4), sequence (Q9UIK4 whole entry): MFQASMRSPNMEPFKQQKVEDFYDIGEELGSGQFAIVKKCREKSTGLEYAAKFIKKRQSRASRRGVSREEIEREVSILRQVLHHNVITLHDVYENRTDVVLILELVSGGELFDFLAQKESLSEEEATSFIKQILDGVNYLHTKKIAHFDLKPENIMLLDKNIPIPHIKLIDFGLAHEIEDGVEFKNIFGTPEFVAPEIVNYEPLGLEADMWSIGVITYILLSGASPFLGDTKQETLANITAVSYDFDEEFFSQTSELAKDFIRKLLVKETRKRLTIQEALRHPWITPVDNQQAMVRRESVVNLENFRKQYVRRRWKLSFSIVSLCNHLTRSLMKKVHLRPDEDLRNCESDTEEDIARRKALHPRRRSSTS
kinases (KINOMEscan panel) (Homo sapiens, UniProt Q86Z02), sequence (Q86Z02 whole entry): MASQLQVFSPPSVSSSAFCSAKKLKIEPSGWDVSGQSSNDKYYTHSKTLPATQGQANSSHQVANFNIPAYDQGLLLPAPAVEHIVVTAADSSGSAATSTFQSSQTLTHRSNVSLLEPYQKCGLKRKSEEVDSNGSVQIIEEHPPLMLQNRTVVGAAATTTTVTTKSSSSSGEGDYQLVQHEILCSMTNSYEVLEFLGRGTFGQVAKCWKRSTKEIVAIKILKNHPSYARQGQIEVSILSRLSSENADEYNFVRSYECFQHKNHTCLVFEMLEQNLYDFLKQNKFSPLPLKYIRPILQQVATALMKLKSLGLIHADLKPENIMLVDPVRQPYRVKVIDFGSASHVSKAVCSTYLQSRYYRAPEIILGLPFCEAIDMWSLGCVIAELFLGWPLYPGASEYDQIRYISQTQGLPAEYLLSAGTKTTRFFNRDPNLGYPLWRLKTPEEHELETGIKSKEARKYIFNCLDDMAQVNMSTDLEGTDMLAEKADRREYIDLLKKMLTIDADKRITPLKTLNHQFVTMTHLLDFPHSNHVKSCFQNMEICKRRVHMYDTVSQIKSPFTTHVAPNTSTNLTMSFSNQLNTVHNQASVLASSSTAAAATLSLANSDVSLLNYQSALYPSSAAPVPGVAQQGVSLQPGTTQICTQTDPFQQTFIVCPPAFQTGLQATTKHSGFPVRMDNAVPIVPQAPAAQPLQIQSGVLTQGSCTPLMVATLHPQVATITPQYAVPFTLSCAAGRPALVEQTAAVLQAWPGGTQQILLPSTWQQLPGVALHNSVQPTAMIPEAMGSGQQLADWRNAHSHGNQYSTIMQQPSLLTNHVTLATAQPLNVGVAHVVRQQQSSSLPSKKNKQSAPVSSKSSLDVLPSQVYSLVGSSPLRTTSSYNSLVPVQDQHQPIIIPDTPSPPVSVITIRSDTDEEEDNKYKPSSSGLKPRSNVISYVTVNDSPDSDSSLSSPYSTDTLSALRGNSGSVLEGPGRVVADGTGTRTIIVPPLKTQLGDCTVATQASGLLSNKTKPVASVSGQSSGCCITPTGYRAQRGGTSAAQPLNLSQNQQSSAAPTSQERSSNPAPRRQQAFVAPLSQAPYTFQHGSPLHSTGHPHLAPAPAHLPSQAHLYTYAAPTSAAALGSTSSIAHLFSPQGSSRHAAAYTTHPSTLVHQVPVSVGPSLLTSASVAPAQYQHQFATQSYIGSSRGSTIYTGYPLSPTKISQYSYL

Structure (SMILES) | KINOMEscan HIPK1 [1] | KINOMEscan DAPK2 [2] | KINOMEscan TAOK2 [3] | KINOMEscan NEK10 [4]
Cc1cccc(-c2nc(Nc3ccc4nn(C)cc4c3)c3ccccc3n2)n1 [NK167] | 27 | 0 | 19 | 11
Cc1cccc(-c2nc(N(C)c3ccc4ncsc4c3)c3ccccc3n2)n1 [NK-161] | 5 | 0 | 20 | 17
